PubChem BioAssay AID1745844 (Carcinogenic Potency Database (CPDB), 2022)

System: rodent lifetime carcinogenesis bioassay, tumor incidence TD50
Assay: chronic cancer bioassays in animals – CPDB, compiled studies (AID 1745844)
Settings: in feed

OCC(CO)(CBr)CBr was tested, and the TD50 (mouse, strain B6C3F1, females, site: Harderian gland + lung + subcutaneous tissue, lesion: adenoma + adenoma, bilateral + carcinoma + alveolar/bronchiolar adenoma + alveolar/bronchiolar carcinoma + fibrosarcoma + sarcoma, dosed 104 weeks, study length 106 weeks) was 67.8 mg/kg/day, the TD50 (mouse, strain B6C3F1, females, site: Harderian gland, lesion: adenoma + adenoma, bilateral + carcinoma, dosed 104 weeks, study length 106 weeks) was 122 mg/kg/day and the TD50 (mouse, strain B6C3F1, females, site: Harderian gland, lesion: adenoma + adenoma, bilateral, dosed 104 weeks, study length 106 weeks) was 187 mg/kg/day. The TD50 (mouse, strain B6C3F1, females, site: Harderian gland, lesion: carcinoma, dosed 104 weeks, study length 106 weeks) was 323 mg/kg/day, the TD50 (mouse, strain B6C3F1, females, site: all sites, lesion: hemangioma + hemangiosarcoma, dosed 104 weeks, study length 106 weeks) was 846 mg/kg/day and the TD50 (mouse, strain B6C3F1, females, site: all sites, lesion: hemangiosarcoma, dosed 104 weeks, study length 106 weeks) was 1480 mg/kg/day. The TD50 (mouse, strain B6C3F1, females, site: any site (literature study), lesion: several types, types named in the paper, dosed 104 weeks, study length 106 weeks) was 57.3 mg/kg/day, the TD50 (mouse, strain B6C3F1, females, site: forestomach, lesion: squamous-cell papilloma, dosed 104 weeks, study length 106 weeks) was 446 mg/kg/day and the TD50 (mouse, strain B6C3F1, females, site: liver, lesion: hepatocellular adenoma + hepatoblastoma + hepatocellular carcinoma, dosed 104 weeks, study length 106 weeks) was 267 mg/kg/day. For the same compound, the TD50 (mouse, strain B6C3F1, females, site: liver, lesion: hepatocellular adenoma, dosed 104 weeks, study length 106 weeks) was 301 mg/kg/day, the TD50 (mouse, strain B6C3F1, females, site: lung, lesion: alveolar/bronchiolar adenoma + alveolar/bronchiolar carcinoma, dosed 104 weeks, study length 106 weeks) was 127 mg/kg/day and the TD50 (mouse, strain B6C3F1, females, site: lung, lesion: alveolar/bronchiolar adenoma, dosed 104 weeks, study length 106 weeks) was 171 mg/kg/day. For the same compound, the TD50 (mouse, strain B6C3F1, females, site: lung, lesion: alveolar/bronchiolar carcinoma, dosed 104 weeks, study length 106 weeks) was 398 mg/kg/day, the TD50 (mouse, strain B6C3F1, females, site: mammary gland, lesion: carcinoma, dosed 104 weeks, study length 106 weeks) was 1480 mg/kg/day and the TD50 (mouse, strain B6C3F1, females, site: subcutaneous tissue, lesion: fibrosarcoma + sarcoma, dosed 104 weeks, study length 106 weeks) was 322 mg/kg/day. It also gave a TD50 (mouse, strain B6C3F1, females, site: subcutaneous tissue, lesion: sarcoma, dosed 104 weeks, study length 106 weeks) of 350 mg/kg/day, a TD50 (mouse, strain B6C3F1, males, site: Harderian gland + kidney + lung, lesion: adenoma + adenoma, bilateral + carcinoma + carcinoma, bilateral + tubule adenoma + alveolar/bronchiolar adenoma + alveolar/bronchiol, dosed 104 weeks, study length 105 weeks) of 106 mg/kg/day and a TD50 (mouse, strain B6C3F1, males, site: Harderian gland, lesion: adenoma + adenoma, bilateral + carcinoma + carcinoma, bilateral, dosed 104 weeks, study length 105 weeks) of 155 mg/kg/day. It also gave a TD50 (mouse, strain B6C3F1, males, site: Harderian gland, lesion: adenoma + adenoma, bilateral, dosed 104 weeks, study length 105 weeks) of 191 mg/kg/day, a TD50 (mouse, strain B6C3F1, males, site: any site (literature study), lesion: several types, types named in the paper, dosed 104 weeks, study length 105 weeks) of 126 mg/kg/day and a TD50 (mouse, strain B6C3F1, males, site: forestomach, lesion: squamous-cell carcinoma + squamous-cell papilloma, dosed 104 weeks, study length 105 weeks) of 581 mg/kg/day. It also gave a TD50 (mouse, strain B6C3F1, males, site: kidney, lesion: tubule adenoma, dosed 104 weeks, study length 105 weeks) of 1190 mg/kg/day, a TD50 (mouse, strain B6C3F1, males, site: liver, lesion: hepatocellular adenoma + hepatoblastoma + hepatocellular carcinoma, dosed 104 weeks, study length 105 weeks) of 2480 mg/kg/day and a TD50 (mouse, strain B6C3F1, males, site: lung, lesion: alveolar/bronchiolar adenoma + alveolar/bronchiolar carcinoma, dosed 104 weeks, study length 105 weeks) of 218 mg/kg/day. For the same compound, the TD50 (mouse, strain B6C3F1, males, site: lung, lesion: alveolar/bronchiolar adenoma, dosed 104 weeks, study length 105 weeks) was 270 mg/kg/day, the TD50 (mouse, strain B6C3F1, males, site: lung, lesion: alveolar/bronchiolar carcinoma, dosed 104 weeks, study length 105 weeks) was 334 mg/kg/day and the TD50 (mouse, strain B6C3F1, males, site: thyroid gland, lesion: follicular-cell adenoma, dosed 104 weeks, study length 105 weeks) was 835 mg/kg/day. The TD50 (rat, strain Fischer 344, females, site: all sites, lesion: mononuclear-cell leukemia, dosed 104 weeks, study length 105 weeks) was 406 mg/kg/day, the TD50 (rat, strain Fischer 344, females, site: any site (literature study), lesion: several types, types named in the paper, dosed 104 weeks, study length 105 weeks) was 94.4 mg/kg/day and the TD50 (rat, strain Fischer 344, females, site: esophagus + mammary gland + palate + thyroid gland + tongue, lesion: squamous-cell papilloma + adenoma + carcinoma + fibroadenoma + squamous-cell carcinoma + follicular-cell adenoma + follicular-cell c, dosed 104 weeks, study length 105 weeks) was 84.3 mg/kg/day. For the same compound, the TD50 (rat, strain Fischer 344, females, site: esophagus, lesion: squamous-cell papilloma, dosed 104 weeks, study length 105 weeks) was 1410 mg/kg/day, the TD50 (rat, strain Fischer 344, females, site: mammary gland, lesion: adenoma + carcinoma + fibroadenoma, dosed 104 weeks, study length 105 weeks) was 83.8 mg/kg/day and the TD50 (rat, strain Fischer 344, females, site: mammary gland, lesion: adenoma + fibroadenoma, dosed 104 weeks, study length 105 weeks) was 83 mg/kg/day. It also gave a TD50 (rat, strain Fischer 344, females, site: mammary gland, lesion: fibroadenoma, dosed 104 weeks, study length 105 weeks) of 83 mg/kg/day, a TD50 (rat, strain Fischer 344, females, site: palate + tongue, lesion: squamous-cell carcinoma + squamous-cell papilloma, dosed 104 weeks, study length 105 weeks) of 1010 mg/kg/day and a TD50 (rat, strain Fischer 344, females, site: palate + tongue, lesion: squamous-cell papilloma, dosed 104 weeks, study length 105 weeks) of 1240 mg/kg/day. It also gave a TD50 (rat, strain Fischer 344, females, site: pituitary gland, lesion: pars distalis adenoma, dosed 104 weeks, study length 105 weeks) of 300 mg/kg/day, a TD50 (rat, strain Fischer 344, females, site: subcutaneous tissue, lesion: fibrosarcoma + fibroma + sarcoma, dosed 104 weeks, study length 105 weeks) of 1370 mg/kg/day and a TD50 (rat, strain Fischer 344, females, site: subcutaneous tissue, lesion: fibrosarcoma + sarcoma, dosed 104 weeks, study length 105 weeks) of 4200 mg/kg/day. The TD50 (rat, strain Fischer 344, females, site: thyroid gland, lesion: follicular-cell adenoma + follicular-cell carcinoma, dosed 104 weeks, study length 105 weeks) was 1670 mg/kg/day, the TD50 (rat, strain Fischer 344, females, site: thyroid gland, lesion: follicular-cell adenoma, dosed 104 weeks, study length 105 weeks) was 2160 mg/kg/day and the TD50 (rat, strain Fischer 344, females, site: tongue, lesion: squamous-cell carcinoma + squamous-cell papilloma, dosed 104 weeks, study length 105 weeks) was 1260 mg/kg/day. For the same compound, the TD50 (rat, strain Fischer 344, females, site: tongue, lesion: squamous-cell papilloma, dosed 104 weeks, study length 105 weeks) was 1360 mg/kg/day, the TD50 (rat, strain Fischer 344, females, site: uterus, lesion: endometrial stromal polyp + endometrial stromal sarcoma, dosed 104 weeks, study length 105 weeks) was 859 mg/kg/day and the TD50 (rat, strain Fischer 344, females, site: uterus, lesion: endometrial stromal polyp, dosed 104 weeks, study length 105 weeks) was 904 mg/kg/day. The TD50 (rat, strain Fischer 344, males, site: Zymbal's gland, lesion: adenoma + carcinoma + carcinoma, bilateral, dosed 12 weeks, study length 103 weeks) was 138 mg/kg/day, the TD50 (rat, strain Fischer 344, males, site: Zymbal's gland, lesion: adenoma + carcinoma, dosed 104 weeks, study length 105 weeks) was 1600 mg/kg/day and the TD50 (rat, strain Fischer 344, males, site: Zymbal's gland, lesion: adenoma, dosed 104 weeks, study length 105 weeks) was 1950 mg/kg/day. It also gave a TD50 (rat, strain Fischer 344, males, site: Zymbal's gland, lesion: carcinoma + carcinoma, bilateral, dosed 12 weeks, study length 103 weeks) of 138 mg/kg/day, a TD50 (rat, strain Fischer 344, males, site: all sites + colon + esophagus + gingiva + jejunum + lung + mammary gland + palate + skin + subcutaneous tissue + thyroid gland + tongue + urinar, lesion: mononuclear-cell leukemia + mesothelioma, malignant + adenomatous polyp + squamous-cell papilloma + squamous-cell carcinoma + carc, dosed 104 weeks, study length 105 weeks) of 68.1 mg/kg/day and a TD50 (rat, strain Fischer 344, males, site: all sites, lesion: mesothelioma, malignant, dosed 12 weeks, study length 103 weeks) of 28.4 mg/kg/day. It also gave a TD50 (rat, strain Fischer 344, males, site: all sites, lesion: mesothelioma, malignant, dosed 104 weeks, study length 105 weeks) of 335 mg/kg/day, a TD50 (rat, strain Fischer 344, males, site: all sites, lesion: mononuclear-cell leukemia, dosed 12 weeks, study length 103 weeks) of 22.5 mg/kg/day and a TD50 (rat, strain Fischer 344, males, site: all sites, lesion: mononuclear-cell leukemia, dosed 104 weeks, study length 105 weeks) of 95.8 mg/kg/day. The TD50 (rat, strain Fischer 344, males, site: any site (literature study), lesion: several types, types named in the paper, dosed 12 weeks, study length 103 weeks) was 6.25 mg/kg/day, the TD50 (rat, strain Fischer 344, males, site: any site (literature study), lesion: several types, types named in the paper, dosed 104 weeks, study length 105 weeks) was 63.8 mg/kg/day and the TD50 (rat, strain Fischer 344, males, site: colon + rectum, lesion: adenomatous polyp + carcinoma, dosed 12 weeks, study length 103 weeks) was 146 mg/kg/day. The TD50 (rat, strain Fischer 344, males, site: colon + rectum, lesion: adenomatous polyp, dosed 12 weeks, study length 103 weeks) was 152 mg/kg/day, the TD50 (rat, strain Fischer 344, males, site: colon, lesion: adenomatous polyp, dosed 104 weeks, study length 105 weeks) was 997 mg/kg/day and the TD50 (rat, strain Fischer 344, males, site: esophagus, lesion: squamous-cell papilloma, dosed 104 weeks, study length 105 weeks) was 1390 mg/kg/day. The TD50 (rat, strain Fischer 344, males, site: forestomach, lesion: squamous-cell papilloma, dosed 12 weeks, study length 103 weeks) was 217 mg/kg/day, the TD50 (rat, strain Fischer 344, males, site: forestomach, lesion: squamous-cell papilloma, dosed 104 weeks, study length 105 weeks) was 16000 mg/kg/day and the TD50 (rat, strain Fischer 344, males, site: gingiva + palate + tongue, lesion: squamous-cell carcinoma + squamous-cell papilloma, dosed 104 weeks, study length 105 weeks) was 285 mg/kg/day. The TD50 (rat, strain Fischer 344, males, site: ileum + jejunum, lesion: carcinoma + adenomatous polyp, dosed 12 weeks, study length 103 weeks) was 363 mg/kg/day, the TD50 (rat, strain Fischer 344, males, site: ileum + jejunum, lesion: carcinoma, dosed 12 weeks, study length 103 weeks) was 445 mg/kg/day and the TD50 (rat, strain Fischer 344, males, site: jejunum, lesion: carcinoma, dosed 104 weeks, study length 105 weeks) was 5660 mg/kg/day.
